Measured values reported in patent US10058100B2, “Hydrogen sulfide releasing compounds and their use” (THE UNIVERSITY OF EXETER, priority 2011, dated 2018).
Entries after “also recorded” stand apart in the source; their conditions may differ.

How the values were obtained:
[1] = test system: HMEC; test: Mitochondrial oxidative stress measurements (MitoSox Red); format: cell-based, human
Method: HMEC were incubated with H2S donor compounds for 5 hrs then the oxidants H2O2, SIN-1 or […] added for 2 hrs. We used a mitochondria-selective oxidant probe MitoSox Red (final concentration, 5 μM) to detect mitochondria-derived oxidant species by fluorescence using a Gemini M2e microplate reader (excitation wavelength 510 nm, emission wavelength, 580 nm). The method was performed in accordance with the method described by M. Whiteman et al (Meths. Mol. Biol., 2008, 476, 29-50) and R. A. Quintanilla et al (J Biol Chem., 2008, 284, 18754-18766).

[2] = test system: chloride channels derived from rat heart sarcoplasmic reticulum; test: Single channel properties of chloride channels in bilayer lipid membrane; format: biochemical
Method: Sarcoplasmic reticulum (SR) vesicles, isolated from rat heart, were fused into bilayer lipid membrane separating the cis and trans chambers, and electrical current through the single chloride channel was measured. […] The single channel parameters: Open probability, current-voltage relationship, reversal potential, mean open and close time and single current amplitude were evaluated (FIGS. 24-28).

[3] = test system: HMEC; test: Intracellular oxidative stress measurements (DCFDA assay); format: cell-based, human
Method: HMEC were incubated with H2S donor compounds for 5 hrs then H2O2, […] or SIN-1 were added for 2 hrs. Intracellular oxidative stress was then assessed using dichlorofluorescein diacetate (added at a final concentration of 10 μM) and fluorescence detected using a Gemini M2e microplate reader at 37° C. (excitation wavelength, 488 nm, emission wavelength 525 nm). The method was performed in accordance with the method described by M. Whiteman et al (Meths. Mol. Biol., 2008, 476, 29-50).

[4] = test system: HMEC; test: Mitochondrial membrane potential (ΔΨm), tetramethylrhodamine methyl ester; format: cell-based, human; conditions: H2O2, SIN-1 or 4-HNE; AP39 100 nM, FIG. 13
Method: HMEC were incubated with H2S donor compounds for 5 hrs followed by the addition of oxidants SIN-1 (500 μM), H2O2 (50 μM) or […] (10 μM) for 24 hrs. After this time the mitochondria-specific potentiometric dye tetramethylrhodamine methyl ester (200 nM) was added and fluorescence was determined using a Gemini M2e microplate reader (excitation wavelength 548 nm, emission wavelength 573 nm). The method was performed in accordance with the method described by M. Whiteman et al (FASEB J, 2004, 18, 1395-1397).

## O=C(CCCCCCCCC[P+](c1ccccc1)(c1ccccc1)c1ccccc1)Oc1ccc(-c2cc(=S)ss2)cc1.[Br-] [AP39]
[1]; 4-HNE 10 μM, AP39 0.1 μM, FIGS. 16 and 18
  mitochondrial superoxide formation induced by 4-HNE (MitoSOX red): significantly reduced
[1]; AP39 0.1 μM versus GYY4137 100 μM
  lower concentration than GYY4137 for reduction of mitochondrial superoxide: 1,000 fold
[1]; H2O2 50 μM, AP39 0.1 μM, FIG. 17
  mitochondrial superoxide formation induced by H2O2 (MitoSOX red): reduced
[2]; AP39 20 μmol/l, 0 mV, control 11 ms, FIG. 27
  mean open time of the channel: 33 ms
[2]; AP39 20 and 40 μM, 0 mV, FIGS. 24 and 25
  amplitude of the electrical current through the single chloride channels: increased
[2]; FIGS. 24-28
  channel open probability: increased
[2]; concentration dependent manner, FIG. 28
  mean chloride channel open time, concentration dependence: increased
[2]; control channel 125 pS, FIG. 26
  conductance of chloride channels: increased
[2]; control ratio 9.6, FIG. 26
  Cl−/K+ channel permeability ratio: did not influence
[2]; with AP39, control ~−31 mV, FIG. 26
  channel reversal potential: ~−31 mV
[3]; AP39 100 nM, FIGS. 14 and 15
  4-HNE-derived intracellular oxidant species (DCFDA assay): significantly reduced; also recorded: significantly decreased
[3]; pretreatment with AP39 100 nM, FIG. 15
  time dependent increase in intracellular oxidative stress (DCFDA assay): reduced
[4]
  oxidant-induced mitochondrial membrane potential (Δψm) collapse: inhibition
